Experimental findings from patent US6420563B1, “Small molecule modulators of G protein-coupled receptor six” (Arena Pharmaceuticals, Inc., priority 1998, dated 2002) are described below.

As usually defined, the IC50 is the point on the concentration scale where inhibition reaches its midpoint.

Read-outs that look alike come from different tables or passages of the source.

Assay [1] has as its target T1, GPR6 (Homo sapiens, UniProt P46095).
T1 construct: expressed in transfected cells; 293 cells are used elsewhere
Put plainly: membrane-based cyclic AMP confirmation assay (Example 4C). Type of assay: biochemical. The conditions noted are these: mean +/- standard deviation (number of assays in brackets); read-out: IC50 Values Cyclic AMP Assay Example 4C. The text has this: Using an independent assay approach to provide confirmation of a directly identified candidate compound as set forth above, it is preferred that a confirmation assay then be utilized. In this case, the preferred confirmation assay is membrane-based cyclic AMP (cAMP) assay.
A modified Flash Plate™ Adenylyl Cyclase kit (New England Nuclear; Cat. No. SMP004A) was utilized for confirmation of candidate compounds directly identified as inverse agonists and agonists to endogenous, constitutively activated orphan GPCRs in accordance with the following protocol.
Transfected stable cells were harvested approximately three days after transfection. Membranes were prepared by homogenization of suspended cells in buffer containing 20 mM HEPES, pH 7.4 and 10 mM MgCl2. Homogenization was performed on ice using a Brinkman Polytron™ for approximately 10 seconds. The resulting homogenate was centrifuged at 20,000 rpm for 20 minutes at 4° C. The resulting pellet was then resuspended in buffer containing 20 mM HEPES, pH 7.4 and 0.1 mM EDTA, homogenized for 10 seconds, followed by centrifugation at 20,000 rpm for 20 minutes at 4° C. The resulting pellet can be stored at −80° C. until utilized. On the day of direct identification screening, the membrane pellet is slowly thawed at room temperature, resuspended in buffer containing 20 mM HEPES, pH 7.4, 100 mM NaCl and 10 mM MgCL2, to yield a final protein concentration of 0.60 mg/ml (the resuspended membranes are placed on ice until use).
Candidate compounds identified as per above (if frozen, thawed at room temperature) were added to plate wells (3 μl/well; 12 μM final assay concentration), together with 50 μl Membrane Protein (30 μg/well) and 50 μl of Assay Buffer. This admixture was then incubated for 30 minutes at room temperature, with gentle shaking.
Following the incubation, 100 μl of Detection Buffer was added to each well, followed by incubation for 2-20 hours. Plates were subsequently aspirated and then counted in a Wallac MicroBeta™ plate reader using “Prot. #31” (as per manufacturer instructions).

In assay [2] the target is T2, GPR6:Gsα-Fusion Protein (Homo sapiens, UniProt P46095).
T2 construct: expressed in transfected cells
Put plainly: [35S]GTPγS membrane binding assay (Example 4A). Type of assay: biochemical. The method, then: The assay plates were then centrifuged at 400 rpm for 15 minutes at room temperature and then subsequently aspirated and counted in a scintillation counter.
Membranes expressing the GPCR6:Gsα-Fusion Protein (see Example 2) and for use in the direct identification of candidate compounds as inverse agonists, agonists or partial agonists were prepared as follows:
All materials were kept on ice throughout the procedure. Firstly, the media was aspirated from a confluent monolayer of cells, followed by rinse with 10 ml cold PBS, followed by aspiration. Thereafter, 5 ml of membrane Scrape Buffer was added to scrape cells; this was followed by transfer of cellular extract into 50 ml centrifuge tubes (centrifuged at 20,000 rpm for 17 minutes at 4° C.). Thereafter, the supernatant was aspirated and the pellet was resuspended in 30 ml Membrane Wash Buffer followed by centrifuge at 20,000 rpm for 17 minutes at 4° C. The supernatant was then aspirated and the pellet resuspended in Binding Buffer. This was then homogenized using a Brinkman polytron™ homogenizer (15-20 second bursts until the all material was in suspension). This is referred to herein as “Membrane Protein”.
Candidate compounds (Tripos, Inc., St. Louis, Mo.) were received in 96-well plates (these can be frozen at −80° C.). Membrane Protein (or membranes with expression vector excluding the GPR6:Gsα-Fusion Protein, as control), were homogenized briefly until in suspension. Protein concentration was then determined using the Bradford Protein Assay set forth above. […] Thereafter, 100 ul GDP Buffer was added to each well of a Wallac Scintistrip™ (Wallac). A 5 ul pin-tool was then used to transfer 5 ul of a candidate compound into such well (i.e., 5 ul in total assay volume of 200 ul is a 1:40 ratio such that the final screening concentration of the candidate compound is 10 uM). Again, to avoid contamination, after each transfer step the pin tool was rinsed in three reservoirs comprising water (1×), ethanol (1×) and water (2×)—excess liquid should be shaken from the tool after each rinse and dried with paper towels and kimwipes™. Thereafter, 50 ul of Membrane Protein was added to each well (a control well comprising membranes without the GPCR Fusion Protein is also utilized), and pre-incubated for 5-10 minutes at room temperature (the plates were covered with foil in that the candidate compounds obtained from Tripos are light sensitive). Thereafter, 50 ul of [^35S]GTPγS (0.6 nM) in Binding Buffer was added to each well, followed by incubation on a shaker for 60 minutes at room temperature (again, in this example, plates were covered with foil). The assay was then stopped by spinning of the plates at 4000 RPM for 15 minutes at 22° C. The plates were then aspirated with an 8 channel manifold and sealed with plastic plate covers. The plates were then read on a Wallac 1450 using setting “Prot. #37” (as per manufacturer instructions).
The initial or “primary” screen designed to directly identify, e.g., human GPR6 receptor inverse agonists, consisted of the membrane-based GTPγS binding assay of Example 4A utilizing membranes prepared from 293 stable cells. Candidate compounds directly identified as inhibiting receptor-mediated increases in GTPγS as set forth below were considered active “leads”.
It is preferred that following such direct identification, IC50 (inverse agonist) or EC50 (agonist) values be determined; those having ordinary skill in the art are credited with utilizing IC50 and EC50 assay protocols of choice. FIG. 4 provides a representative IC50 curve for compound ARE112 using the assay protocol of Example 4A.
(In general: GTPγS resists hydrolysis and so accumulates on activated G proteins.)

A short description of assay [3]: Food/water intake and body weight in 24-hour food deprived rats, oral gavage (PO). The class given is in vivo, rat. The method, then:
Based upon the in vivo data developed, oral bioavailability of compound ARE112 was determined. The compound was administered by oral gavage at doses ranging from 6.75 to 54 mg/kg. The data presented in FIGS. 9A and 9B support the conclusion that oral administration of ARE112 also decreases food intake in both food-deprived and non-food deprived rats. […] In FIG. 9A, rats were deprived 24 hours prior to oral administration of the compound. In this assay, the vehicle-treated rats at 2.5 hours consumed […] of food while injected rats; particularly rats administered with 27 and 54 mg/kg of ARE 112, ate about 6 and 4 grams, respectively. […] (See, FIG. 9A).
Several other GPR6 inverse agonists were also assessed under 24-hour food deprived conditions, with PO administration. The analogs listed below were tested at 200 μmol/kg, which is equivalent to 54 mg/kg. In addition, ARE114 was also assessed at […]. Data are summarized below in Table C:
In a second assay, tested under the same conditions, several other analogs were assessed at 100 μmol/kg.
In FIG. 10, rats were deprived 24 hours prior to oral administration of the compound. In this assay, analogs ARE130, ARE135, ARE136, and ARE140, were administered at a dose of 100 μmol/kg. Three analogs, particularly, ARE130, ARE136 and ARE140 evidenced a slow intake of food (e.g., about 1 to 1.5 grams every two hours) over an eight hour period post-administration; while the vehicle rat consumed about 2 to 2.5 grams food every two hours. Similar to the vehicle rat, analog ARE135, an opened ring structure, evidenced that over an eight hour period post-administration the rats increasingly consumed about 2.5 grams every two hours. (See, FIG. 10A). Furthermore, the body weight of the vehicle rat and administered rats with analog ARE135 gained about 19.5 grams. On the other hand, the closed ring structures evidenced a decrease in body weight gain as follows: ARE112-6 grams, ARE130-9 grams, ARE136-11 grams and ARE140-14 grams. See, FIG. 10C.

Where [4] appears, read: mean +/- standard deviation (number of assays in brackets), read-out: IC50 Values GTP Assay Example 4A.
Setting [5] is: 100 μmol/kg PO, second assay, Table D, vehicle 19.25.
The mark [6] stands for this setting: 200 μmol/kg PO, Table C, vehicle 14.5.
Where [7] appears, read: 200 μmol/kg PO, Table C, vehicle 20.3.
The mark [8] stands for this setting: 200 μmol/kg PO, Table C, vehicle 22.9.

T2 sequence (P46095 with tags, fused parts or gaps): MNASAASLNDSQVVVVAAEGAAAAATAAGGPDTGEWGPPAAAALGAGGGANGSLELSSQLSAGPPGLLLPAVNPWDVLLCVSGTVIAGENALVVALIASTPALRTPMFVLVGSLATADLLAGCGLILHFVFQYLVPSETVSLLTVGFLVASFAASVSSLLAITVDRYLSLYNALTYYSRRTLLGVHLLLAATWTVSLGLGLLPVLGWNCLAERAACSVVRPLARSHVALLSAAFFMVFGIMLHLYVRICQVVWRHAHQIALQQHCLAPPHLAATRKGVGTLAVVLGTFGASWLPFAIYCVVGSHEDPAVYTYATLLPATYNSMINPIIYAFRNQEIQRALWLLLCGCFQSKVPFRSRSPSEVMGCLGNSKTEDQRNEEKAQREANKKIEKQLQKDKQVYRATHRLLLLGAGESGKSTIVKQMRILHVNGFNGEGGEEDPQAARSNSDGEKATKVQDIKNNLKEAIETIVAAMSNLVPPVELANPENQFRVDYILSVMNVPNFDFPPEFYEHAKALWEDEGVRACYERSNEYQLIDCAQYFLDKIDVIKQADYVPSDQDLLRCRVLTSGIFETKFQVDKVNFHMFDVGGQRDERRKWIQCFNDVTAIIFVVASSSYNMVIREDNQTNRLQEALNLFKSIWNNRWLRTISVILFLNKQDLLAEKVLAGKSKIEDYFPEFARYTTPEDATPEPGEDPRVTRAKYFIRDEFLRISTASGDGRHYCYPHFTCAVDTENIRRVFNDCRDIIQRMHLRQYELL
T1 sequence (P46095 whole entry): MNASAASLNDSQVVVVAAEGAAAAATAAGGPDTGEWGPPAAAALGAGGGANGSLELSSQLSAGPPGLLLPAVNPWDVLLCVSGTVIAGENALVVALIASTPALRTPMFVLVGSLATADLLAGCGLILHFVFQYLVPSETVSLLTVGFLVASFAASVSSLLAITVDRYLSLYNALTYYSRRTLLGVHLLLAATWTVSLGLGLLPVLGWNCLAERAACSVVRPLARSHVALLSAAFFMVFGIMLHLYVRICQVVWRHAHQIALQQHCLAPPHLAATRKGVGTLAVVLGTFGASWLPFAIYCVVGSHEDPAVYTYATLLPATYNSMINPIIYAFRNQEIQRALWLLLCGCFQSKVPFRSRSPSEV

As to `O=C(NC(=S)N1CCNC1=S)c1ccc2ccccc2c1` [ARE135, N-(2-thioxo-imidazolidine-1-carbothioyl)-naphthyl-2-carboxamide], the half-inhibitory concentration (IC50) in assay [1] came to 710 nM; in assay [2] (mean +/- SD (number of assays), read-out: IC50 Values (Table E, GTP Assay of Example 4A)) it was 100000 nM; in assay [2] (setting [4]) it was 100000 nM. The “Cumulative Food Intake (g) (8 hr post administration)” value (“Cumulative Food Intake (g)” below) in assay [3] (100 μmol/kg PO, second assay, Table D, vehicle 14.0) is 13.5 g. Besides, the “Body Weight Gain (g) (6 hr post administration)” value (“Body Weight Gain (g)” below) in assay [3] (setting [5]) came out at 19.5 g. Further, the “Cumulative Water Intake (g) (6 hr post administration)” value (from here on “Cumulative Water Intake (g)”) in assay [3] (setting [5]) is reported as 19.5 g. In addition, the “food intake every two hours” value in assay [3] (100 μmol/kg oral, over eight hour period post-administration (FIG. 10A), vehicle about 2 to 2.5 grams) is listed as “about 2.5 grams”. In addition, the “water drunk (FIG. 10B)” value in assay [3] (100 μmol/kg oral, comparable to vehicle) is reported as “about 19 grams”. Moreover, the “body weight gain (FIG. 10C)” value in assay [3] (100 μmol/kg oral, vehicle about 19.5 grams) is on record as “about 19.5 grams”.

With `O=C(N=C1SSC2=NCCN21)c1ccc(F)cc1` [ARE128, N-(5,6-dihydro-3H-imidazo[2,1-c]-1,2,4-dithiazol-3-ylidene)-4-fluorobenzamide], the figures for the IC50 in assay [1] and in assay [2] (setting [4]) were 200 nM and 370 nM, respectively. Also, the “Cumulative Food Intake (g)” value in assay [3] (setting [6]) worked out at 7.93 g. Also, the “Body Weight Gain (g)” value in assay [3] (setting [7]) is listed as 4.03 g. In assay [3] (setting [8]), the “Cumulative Water Intake (g)” value came out at 8.5 g.

Regarding `O=C(N=C1SSC2=NCCN21)c1ccccc1` [ARE114, N-(5,6-dihydro-3H-imidazo[2,1-c]-1,2,4-dithiazol-3-ylidene)-benzamide], the figures for the IC50 in assay [1] and in assay [2] (setting [4]) were 170 nM and 440 nM, respectively. Besides, the “Cumulative Food Intake (g)” value in assay [3] (100 μmol/kg PO, Table C, vehicle 14.5) was determined as 10.8 g; in assay [3] (setting [6]), 8.68 g. Also, the “Body Weight Gain (g)” value in assay [3] (100 μmol/kg PO, Table C, vehicle 20.3) is 13.6 g; in assay [3] (setting [7]), 6.18 g. Moreover, the “Cumulative Water Intake (g)” value amounted to 15.3 g in assay [3] (100 μmol/kg PO, Table C, vehicle 22.9) and 10.6 g in assay [3] (setting [8]).

Take `O=C(N=C1SSC2=NCCN21)c1ccc(Cl)cc1` [ARE120, N-(5,6-dihydro-3H-imidazo[2,1-c]-1,2,4-dithiazol-3-ylidene)-4-chlorobenzamide]: the IC50 in assay [1] was 270 nM; in assay [2] (setting [4]) it was 640 nM. In assay [3] (setting [6]), the “Cumulative Food Intake (g)” value is reported as 9.88 g. Further, the “Body Weight Gain (g)” value in assay [3] (setting [7]) was 11.4 g. Also, the “Cumulative Water Intake (g)” value in assay [3] (setting [8]) was found to be 18.5 g.
